Measurements reported in PubChem BioAssay AID1963450 (Molecular Pharmacology Branch, DTP, NCI, 2024).
Values joined by “and” are separate entries in the source; they are usually repeats but may differ in a detail not shown here. Identical values can stand only once.

Tested on: 556581-035-R-J1-PDC complex spheroid growth
Test: Anticancer human tumor 556581-035-R-J1-PDC patient-derived ovarian carcinoma cell line growth inhibition [Asc]
Details: for viability, T/C: stronger effect = lower value
Procedure, shortened: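 Complex solid-tumor spheroids incorporating human endothelial and mesenchymal stem cells received single agents or combinations over half-log dilution ranges anchored to clinical Cmax.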

[1] = curve of first compound, second compound 0.1 µM
[2] = curve of first compound, second compound 0.316 µM
[3] = curve of first compound, second compound 1 µM
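Also: spheroids exposed to agents for 7 days before viability read.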

Molecule `C#Cc1c(F)ccc2cc(O)cc(-c3ncc4c(N5CC6CCC(C5)N6)nc(OCC56CCCN5CC(F)C6)nc4c3F)c12` (configuration not stated) + CCN1C(C(=O)NC23CCC(C(=O)O)(CC2)CC3)C(c2cccc(Cl)c2F)C2(C(=O)Nc3cc(Cl)ccc32)C12CCCCC2 has an IC50 (curve of first compound, second compound 0.03 µM) of over 10000 nM, an IC50 (curve of first compound, second compound 0.0949 µM) of over 10000 nM and an IC50 (curve of first compound, second compound 0.3 µM) of over 10000 nM. The IC50 (curve of first compound, second compound 0.949 µM) was over 10000 nM, the IC50 (curve of first compound, second compound 3 µM) was over 10000 nM and the viability, T/C (second compound 0.03 µM, first compound 0.0316 µM) was 98.9%. It also gave a viability, T/C (second compound 0.03 µM, first compound 0.1 µM) of 86%, a viability, T/C (second compound 0.03 µM, first compound 0.316 µM) of 102% and a viability, T/C (second compound 0.03 µM, first compound 1 µM) of 89.6%. It also gave a viability, T/C (second compound 0.03 µM, first compound 3.16 µM) of 96.7%, a viability, T/C (second compound 0.03 µM, first compound 10 µM) of 89.6% and a viability, T/C (second compound 0.0949 µM, first compound 0.0316 µM) of 105%. It also gave a viability, T/C (second compound 0.0949 µM, first compound 0.1 µM) of 83.2%, a viability, T/C (second compound 0.0949 µM, first compound 0.316 µM) of 93.9% and a viability, T/C (second compound 0.0949 µM, first compound 1 µM) of 79.5%. The viability, T/C (second compound 0.0949 µM, first compound 3.16 µM) was 91%, the viability, T/C (second compound 0.0949 µM, first compound 10 µM) was 61.9% and the viability, T/C (second compound 0.3 µM, first compound 0.0316 µM) was 80.2%. For the same molecule, the viability, T/C (second compound 0.3 µM, first compound 0.1 µM) was 66.7%, the viability, T/C (second compound 0.3 µM, first compound 0.316 µM) was 75% and the viability, T/C (second compound 0.3 µM, first compound 1 µM) was 86.1%. It also gave a viability, T/C (second compound 0.3 µM, first compound 3.16 µM) of 83.3%, a viability, T/C (second compound 0.3 µM, first compound 10 µM) of 61.8% and a viability, T/C (second compound 0.949 µM, first compound 0.0316 µM) of 86.6%. The viability, T/C (second compound 0.949 µM, first compound 0.1 µM) was 80.3%, the viability, T/C (second compound 0.949 µM, first compound 0.316 µM) was 85.7% and the viability, T/C (second compound 0.949 µM, first compound 1 µM) was 74.9%. The viability, T/C (second compound 0.949 µM, first compound 3.16 µM) was 76.3%, the viability, T/C (second compound 0.949 µM, first compound 10 µM) was 78.5% and the viability, T/C (second compound 3 µM, first compound 0.0316 µM) was 95.8%. It also gave a viability, T/C (second compound 3 µM, first compound 0.1 µM) of 102%, a viability, T/C (second compound 3 µM, first compound 0.316 µM) of 76% and a viability, T/C (second compound 3 µM, first compound 1 µM) of 78%. For the same molecule, the viability, T/C (second compound 3 µM, first compound 3.16 µM) was 70.1% and the viability, T/C (second compound 3 µM, first compound 10 µM) was 78.6%.
In the case of `O=C(c1ccc(F)c(F)c1Nc1ccc(I)cc1F)N1CC(O)([C@@H]2CCCCN2)C1`, the viability, T/C (compound 0.00316 µM) is reported as 108% and 79.6% and 89.6%, the viability, T/C (compound 0.01 µM) is reported as 109% and 97.5% and 101% and the viability, T/C (compound 0.0316 µM) is reported as 59.3% and 70.2% and 121%. The viability, T/C (compound 0.1 µM) was 63.9% and 59.8% and 92%, the viability, T/C (compound 0.316 µM) was 50.6% and 37.8% and 42% and the viability, T/C (compound 1 µM) was 7.45% and 10.7% and 14%. For the same molecule, the IC50 (curve of compound) was 171 nM and 164 nM and 263 nM.
Molecule `O=C(c1ccc(F)c(F)c1Nc1ccc(I)cc1F)N1CC(O)([C@@H]2CCCCN2)C1` + CNC(C)C(=O)NC1CN(S(=O)(=O)c2cccc(S(=O)(=O)N3CCC4CCC(C(=O)NC(c5ccccc5)c5ccccc5)N4C(=O)C(NC(=O)C(C)NC)C3)c2)CCC2CCC(C(=O)NC(c3ccccc3)c3ccccc3)N2C1=O has an IC50 (curve of first compound, second compound 0.01 µM) of 219 nM, an IC50 (curve of first compound, second compound 0.0316 µM) of 187 nM and an IC50 [1] of 92 nM. It also gave an IC50 [2] of 183 nM, an IC50 [3] of 119 nM and a viability, T/C (second compound 0.01 µM, first compound 0.00316 µM) of 68.6%. The viability, T/C (second compound 0.01 µM, first compound 0.01 µM) was 71.7%, the viability, T/C (second compound 0.01 µM, first compound 0.0316 µM) was 87.2% and the viability, T/C (second compound 0.01 µM, first compound 0.1 µM) was 83.6%. It also gave a viability, T/C (second compound 0.01 µM, first compound 0.316 µM) of 37%, a viability, T/C (second compound 0.01 µM, first compound 1 µM) of 10.6% and a viability, T/C (second compound 0.0316 µM, first compound 0.00316 µM) of 86.4%. For the same molecule, the viability, T/C (second compound 0.0316 µM, first compound 0.01 µM) was 72.7%, the viability, T/C (second compound 0.0316 µM, first compound 0.0316 µM) was 84.2% and the viability, T/C (second compound 0.0316 µM, first compound 0.1 µM) was 71.9%. It also gave a viability, T/C (second compound 0.0316 µM, first compound 0.316 µM) of 31.2%, a viability, T/C (second compound 0.0316 µM, first compound 1 µM) of 13.3% and a viability, T/C (second compound 0.1 µM, first compound 0.00316 µM) of 68.3%. The viability, T/C (second compound 0.1 µM, first compound 0.01 µM) was 64.5%, the viability, T/C (second compound 0.1 µM, first compound 0.0316 µM) was 59.7% and the viability, T/C (second compound 0.1 µM, first compound 0.1 µM) was 50.8%. For the same molecule, the viability, T/C (second compound 0.1 µM, first compound 0.316 µM) was 27.1%, the viability, T/C (second compound 0.1 µM, first compound 1 µM) was 12.7% and the viability, T/C (second compound 0.316 µM, first compound 0.00316 µM) was 73.9%. It also gave a viability, T/C (second compound 0.316 µM, first compound 0.01 µM) of 68.8%, a viability, T/C (second compound 0.316 µM, first compound 0.0316 µM) of 91.7% and a viability, T/C (second compound 0.316 µM, first compound 0.1 µM) of 66.3%. For the same molecule, the viability, T/C (second compound 0.316 µM, first compound 0.316 µM) was 33.7%, the viability, T/C (second compound 0.316 µM, first compound 1 µM) was 15.2% and the viability, T/C (second compound 1 µM, first compound 0.00316 µM) was 70.9%. For the same molecule, the viability, T/C (second compound 1 µM, first compound 0.01 µM) was 81.4%, the viability, T/C (second compound 1 µM, first compound 0.0316 µM) was 74% and the viability, T/C (second compound 1 µM, first compound 0.1 µM) was 53.6%. The viability, T/C (second compound 1 µM, first compound 0.316 µM) was 24.6% and the viability, T/C (second compound 1 µM, first compound 1 µM) was 11.2%.
Molecule `CCN1C(C(=O)NC23CCC(C(=O)O)(CC2)CC3)C(c2cccc(Cl)c2F)C2(C(=O)Nc3cc(Cl)ccc32)C12CCCCC2` (configuration not stated) + Cc1c(S(C)(=O)=O)c(-c2cc(F)cc(N3CCN(c4ccc(NS(=O)(=O)c5ccc(NC(CCN6CCC(C(=O)OCCCP(=O)(O)O)CC6)CSc6ccccc6)c(S(=O)(=O)C(F)(F)F)c5)cc4)CC3)c2)c(-c2ccc(Cl)cc2)n1C(C)C has an IC50 [1] of over 3000 nM, an IC50 [2] of over 3000 nM and an IC50 [3] of over 3000 nM. For the same molecule, the IC50 (curve of first compound, second compound 3.16 µM) was over 3000 nM, the IC50 (curve of first compound, second compound 10 µM) was 812 nM and the viability, T/C (second compound 0.1 µM, first compound 0.00949 µM) was 80.2%. It also gave a viability, T/C (second compound 0.1 µM, first compound 0.03 µM) of 84.5%, a viability, T/C (second compound 0.1 µM, first compound 0.0949 µM) of 89.2% and a viability, T/C (second compound 0.1 µM, first compound 0.3 µM) of 81.3%. For the same molecule, the viability, T/C (second compound 0.1 µM, first compound 0.949 µM) was 82%, the viability, T/C (second compound 0.1 µM, first compound 3 µM) was 75.8% and the viability, T/C (second compound 0.316 µM, first compound 0.00949 µM) was 82.2%. For the same molecule, the viability, T/C (second compound 0.316 µM, first compound 0.03 µM) was 77.6%, the viability, T/C (second compound 0.316 µM, first compound 0.0949 µM) was 85.3% and the viability, T/C (second compound 0.316 µM, first compound 0.3 µM) was 68.3%. The viability, T/C (second compound 0.316 µM, first compound 0.949 µM) was 64%, the viability, T/C (second compound 0.316 µM, first compound 3 µM) was 66.4% and the viability, T/C (second compound 1 µM, first compound 0.00949 µM) was 87%. It also gave a viability, T/C (second compound 1 µM, first compound 0.03 µM) of 74.2%, a viability, T/C (second compound 1 µM, first compound 0.0949 µM) of 80.1% and a viability, T/C (second compound 1 µM, first compound 0.3 µM) of 78.1%. It also gave a viability, T/C (second compound 1 µM, first compound 0.949 µM) of 60.2%, a viability, T/C (second compound 1 µM, first compound 3 µM) of 52.1% and a viability, T/C (second compound 3.16 µM, first compound 0.00949 µM) of 65.8%. For the same molecule, the viability, T/C (second compound 3.16 µM, first compound 0.03 µM) was 68.3%, the viability, T/C (second compound 3.16 µM, first compound 0.0949 µM) was 74.8% and the viability, T/C (second compound 3.16 µM, first compound 0.3 µM) was 69.4%. The viability, T/C (second compound 3.16 µM, first compound 0.949 µM) was 77.1%, the viability, T/C (second compound 3.16 µM, first compound 3 µM) was 47.2% and the viability, T/C (second compound 10 µM, first compound 0.00949 µM) was 60.2%. For the same molecule, the viability, T/C (second compound 10 µM, first compound 0.03 µM) was 67.6%, the viability, T/C (second compound 10 µM, first compound 0.0949 µM) was 55.6% and the viability, T/C (second compound 10 µM, first compound 0.3 µM) was 58.7%. The viability, T/C (second compound 10 µM, first compound 0.949 µM) was 49% and the viability, T/C (second compound 10 µM, first compound 3 µM) was 30.8%.
